Assay results from patent US9809578B2, “Pyrazolyl urea, thiourea, guanidine and cyanoguanidine compounds as trkA kinase inhibitors” (Array BioPharma Inc., priority 2012, dated 2017).

Biological target: T1, His-tagged recombinant human TrkA (Homo sapiens, UniProt P04629)
T1 construct: 6HIS tagged cytoplasmic domain from Invitrogen, Cat. No. PV3144; purchased Invitrogen PV3144
Test: TrkA LanthaScreen Eu Kinase Binding Assay
Details: averaged IC50; LanthaScreen Eu kinase binding, TR-FRET; read-out: TrkA enzyme IC50
Procedure: TrkA binding activity was determined in a TrkA LanthaScreen™ Eu Kinase Binding Assay. […] Three fold serial dilutions of compounds of the invention in DMSO were added to a final percentage of 2% DMSO. […] The percent of control was calculated using a ratiometric emission factor. The IC50 values were determined by fitting a four parameter model to the percent of control data.

T1 sequence (P04629 440-796 limits assumed): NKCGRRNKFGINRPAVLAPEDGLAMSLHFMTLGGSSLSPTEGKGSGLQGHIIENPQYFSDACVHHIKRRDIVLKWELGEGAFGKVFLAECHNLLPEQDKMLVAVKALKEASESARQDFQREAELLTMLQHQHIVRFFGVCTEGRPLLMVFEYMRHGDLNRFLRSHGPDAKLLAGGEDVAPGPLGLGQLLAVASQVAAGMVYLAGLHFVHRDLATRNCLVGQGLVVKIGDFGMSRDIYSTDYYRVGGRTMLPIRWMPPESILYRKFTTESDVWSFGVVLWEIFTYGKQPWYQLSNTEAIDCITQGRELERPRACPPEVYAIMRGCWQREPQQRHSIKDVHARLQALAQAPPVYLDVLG

Row | SMILES | IC50
1 | Cc1c(-c2cnn(C)c2)nn(-c2ccccc2)c1NC(=O)Nc1cc(C(C)C)nn1-c1ccccc1 [Example 8, 1-(1′,4-dimethyl-1-phenyl-1H,1′H-[3,4′-bipyrazol]-5-yl)-3-(3-isopropyl-1-phenyl-1H-pyrazol-5-yl)urea] | 100 to 1000 nM
2 | Cc1c(-c2cnn(C)c2)nn(-c2ccccc2)c1NC(=O)Nc1cc(CC(F)(F)F)nn1-c1ccc(F)cc1 [Example 10, 1-(1′,4-dimethyl-1-phenyl-1H,1′H-[3,4′-bipyrazol]-5-yl)-3-(1-(4-fluorophenyl)-3-(2,2,2-trifluoroethyl)-1H-pyrazol-5-yl)urea] | 100 to 1000 nM
3 | Cc1c(-c2cnn(C)c2)nn(-c2ccccc2)c1NC(=O)Nc1c(C)c(C(F)(F)F)nn1-c1ccccc1 [Example 6, 1-(1′,4-dimethyl-1-phenyl-1H,1′H-[3,4′-bipyrazol]-5-yl)-3-(4-methyl-1-phenyl-3-(trifluoromethyl)-1H-pyrazol-5-yl)urea] | 100 to 1000 nM
4 | Cc1cc(NC(=O)Nc2c(C)c(-c3cnn(C)c3)nn2-c2ccccc2)n(-c2ccccc2)n1 [Example 2, 1-(1′,4-dimethyl-1-phenyl-1H,1′H-[3,4′-bipyrazol]-5-yl)-3-(3-methyl-1-phenyl-1H-pyrazol-5-yl)urea] | 100 to 1000 nM
5 | Cc1c(OCCO)nn(-c2ccccc2)c1NC(=O)Nc1cc(C(F)(F)F)nn1-c1ccccc1 [Example 12, 1-(3-(2-hydroxyethoxy)-4-methyl-1-phenyl-1H-pyrazol-5-yl)-3-(1-phenyl-3-(trifluoromethyl)-1H-pyrazol-5-yl)urea] | < 100 nM
6 | Cc1c(-c2cnn(C)c2)nn(-c2ccccc2)c1NC(=O)Nc1cc(CC(F)(F)F)nn1-c1ccccc1 [Example 9, 1-(1′,4-dimethyl-1-phenyl-1H,1′H-[3,4′-bipyrazol]-5-yl)-3-(1-phenyl-3-(2,2,2-trifluoroethyl)-1H-pyrazol-5-yl)urea] | 100 to 1000 nM

The remaining lines, values ahead:

Row | IC50 | SMILES
7 | < 100 nM | Cc1c(-c2ccn(C)c(=O)c2)nn(-c2ccccc2)c1NC(=O)Nc1cc(C(F)(F)F)nn1-c1ccccc1 [Example 5, 1-(4-methyl-3-(1-methyl-2-oxo-1,2-dihydropyridin-4-yl)-1-phenyl-1H-pyrazol-5-yl)-3-(1-phenyl-3-(trifluoromethyl)-1H-pyrazol-5-yl)urea]
8 | < 100 nM | Cc1c(-c2ccc(=O)n(C)c2)nn(-c2ccccc2)c1NC(=O)Nc1cc(C(F)(F)F)nn1-c1ccccc1 [Example 4, 1-(4-methyl-3-(1-methyl-6-oxo-1,6-dihydropyridin-3-yl)-1-phenyl-1H-pyrazol-5-yl)-3-(1-phenyl-3-(trifluoromethyl)-1H-pyrazol-5-yl)urea]
9 | < 100 nM | COc1ncc(-c2nn(-c3ccccc3)c(NC(=O)Nc3cc(C(F)(F)F)nn3-c3ccccc3)c2C)cn1 [Example 11, 1-(3-(2-methoxypyrimidin-5-yl)-4-methyl-1-phenyl-1H-pyrazol-5-yl)-3-(1-phenyl-3-(trifluoromethyl)-1H-pyrazol-5-yl)urea]
10 | < 100 nM | Cc1c(-c2cnn(C)c2)nn(-c2ccccc2)c1NC(=O)Nc1cc(C2CC2(F)F)nn1-c1ccccc1 (centres unmarked) [Example 7, 1-(3-(2,2-difluorocyclopropyl)-1-phenyl-1H-pyrazol-5-yl)-3-(1′,4-dimethyl-1-phenyl-1H,1′H-[3,4′-bipyrazol]-5-yl)urea]
11 | < 100 nM | Cc1c(-c2cnn(C)c2)nn(-c2ccccc2)c1NC(=O)Nc1cc(C2CC2)nn1-c1ccccc1 [Example 1, 1-(3-cyclopropyl-1-phenyl-1H-pyrazol-5-yl)-3-(1′,4-dimethyl-1-phenyl-1H,1′H-[3,4′-bipyrazol]-5-yl)urea]
